Like-named read-outs stand apart in the source and are kept apart here.

The source of these data is patent US20220274965A1, “ANTIVIRAL AGENTS AND USES THEREOF” (GRIFFITH UNIVERSITY, priority 2019, published 2022).

In test [1] the test system is hPIV-1 strain C35. The test can be described thus: Haemagglutination inhibition (HI) assay with human red blood cells. Format: biochemical. To be noted: hPIV1 C35.
Test [2] deals with hPIV-3 strain CI002 (clinical isolate). The description is as above. The test is classed as biochemical. The note with it: hPIV3 CI002.
For test [3], the system named is hPIV-3 strain JS. The description is as above. The note with it: hPIV3 JS. Format: biochemical.
Test [4] concerns hPIV-3 strain C243. The test can be described thus: In situ ELISA virus growth inhibition in LLC-MK2 cells. Format: cell-based. To be noted: Human respirovirus 3, LLC-MK2.
For test [5], the system named is hPIV-3 strain JS. The description is as above. The note with it: Human respirovirus 3, LLC-MK2; hPIV3 JS. Format: cell-based.
Test [6] concerns the target hPIV-3 strain C243 neuraminidase (UniProt P08492, species not given/STRAIN_C243). Format: biochemical.
For test [7], the system named is hPIV-3 strain C243. Nature of the test: Haemagglutination inhibition (HI) assay with human red blood cells. Format: biochemical. To be noted: hPIV3 C243.
The target of test [8] is hPIV-3 strain CI002 (clinical isolate) neuraminidase (UniProt P08492, species not given/STRAIN_CI002). Format: biochemical. The note with it: hPIV3 CI002; read-out: NI IC50.
[9] abbreviates: hPIV3 C243, Table 2, read-out: NI IC50.
The mark [10] stands for this setting: hPIV-3 strain C243, Table 1, read-out: NI (IC50).

hPIV-3 strain C243 neuraminidase, sequence (P08492 whole entry, change not shown): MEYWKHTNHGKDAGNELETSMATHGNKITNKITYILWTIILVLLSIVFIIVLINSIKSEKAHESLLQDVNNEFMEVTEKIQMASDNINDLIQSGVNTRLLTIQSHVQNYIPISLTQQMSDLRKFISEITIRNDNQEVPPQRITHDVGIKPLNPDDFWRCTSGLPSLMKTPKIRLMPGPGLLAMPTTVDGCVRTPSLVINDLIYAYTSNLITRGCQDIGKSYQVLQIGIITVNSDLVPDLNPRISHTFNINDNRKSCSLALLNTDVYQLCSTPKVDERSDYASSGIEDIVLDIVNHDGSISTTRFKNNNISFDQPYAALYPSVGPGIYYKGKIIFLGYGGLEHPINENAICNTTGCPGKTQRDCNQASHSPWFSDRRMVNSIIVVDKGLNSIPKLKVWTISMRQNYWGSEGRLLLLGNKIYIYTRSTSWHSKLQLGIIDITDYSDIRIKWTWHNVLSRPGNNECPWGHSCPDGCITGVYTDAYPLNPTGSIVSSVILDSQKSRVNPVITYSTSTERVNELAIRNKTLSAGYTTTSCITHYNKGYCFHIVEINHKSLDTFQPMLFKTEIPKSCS
hPIV-3 strain CI002 (clinical isolate) neuraminidase, sequence (P08492 whole entry, change not shown): as above

On to `CC(=O)Nc1ccccc1-c1cn([C@H]2C=C(C(=O)O)O[C@@H]([C@H](O)[C@H](O)CO)[C@@H]2NC(C)=O)nn1`, for which the IC50 in test [1] was over 200 µM; in test [2] it was over 200 µM; in test [3], 40 µM; in test [4] (hPIV3 C243, Table 2), 126 µM; in test [5], 406 µM.

As to `CC(=O)N[C@H]1[C@H]([C@H](O)[C@H](O)CO)OC(C(=O)O)=C[C@@H]1n1cc(-c2ccccc2NC(=O)c2cccc(OC(F)(F)F)c2)nn1`, the IC50 was 47.4 µM in test [6] (setting [9]); over 200 µM in test [7]; over 200 µM in test [2]; over 250 µM in test [3]; 217 µM in test [4] (hPIV3 C243, Table 2); over 500 µM in test [5].

On to `COc1c(F)c(F)cc(C(=O)Nc2ccccc2-c2cn([C@H]3C=C(C(=O)O)O[C@@H]([C@H](O)[C@H](O)CO)[C@@H]3NC(C)=O)nn2)c1F`, for which the half-maximal inhibitory concentration (IC50) in test [6] (setting [9]) is 32.8 µM; in test [1] it was over 200 µM; in test [3], over 250 µM; in test [4] (hPIV3 C243, Table 2) it was 177 µM; in test [5], 764 µM.

In the case of `CC(=O)N[C@H]1[C@H]([C@H](O)[C@H](O)CO)OC(C(=O)O)=C[C@@H]1n1cc(-c2ccccc2NC(=O)CNC(=O)c2ccccc2)nn1`, the IC50 in test [1] is over 200 µM; in test [2], over 200 µM; in test [3], 20 µM; in test [5], 340 µM.

For the compound `CC(=O)N[C@H]1[C@H]([C@H](O)[C@H](O)CO)OC(C(=O)O)=C[C@@H]1n1cc(-c2ccccc2NC(=O)CNC(=O)c2ccc(N(C)C)cc2)nn1`, the IC50 in test [1] was over 200 µM; in test [2] it was over 200 µM; in test [3], 14 µM; in test [5], 355 µM.

Consider `CC(=O)N[C@H]1[C@H]([C@H](O)[C@H](O)CO)OC(C(=O)O)=C[C@@H]1n1cc(-c2ccccc2NC(=O)CNC(=O)c2ccc(-c3ccccc3)cc2)nn1`, for which the IC50 in test [1] was over 200 µM; in test [2], 44.5 µM; in test [3] it was 6.4 µM; in test [4] (hPIV3 C243, Table 2), 23.7 µM; in test [5] it was 60.7 µM.

`CC(=O)N[C@H]1[C@H]([C@H](O)[C@H](O)CO)OC(C(=O)O)=C[C@@H]1n1cc(-c2ccccc2NC(=O)CCNC(=O)C2CC2)nn1`: the IC50 in test [6] (setting [9]) was 30.2 µM; in test [7] it was over 200 µM; in test [2], over 200 µM; in test [3], over 250 µM; in test [4] (hPIV3 C243, Table 2), 104 µM; in test [5] it was 602 µM.

As for `O=C(O)C1=C[C@H](n2cc3c(Br)cccc3n2)[C@@H](NC(=O)C(F)(F)F)[C@H]([C@H](O)[C@H](O)CO)O1`, the IC50 came out at 3.95 µM in test [6] (setting [9]), 8.87 µM in test [8], 4.94 µM in test [1] and 7.41 µM in test [2].

For `N#Cc1ccc2nn([C@H]3C=C(C(=O)O)O[C@@H]([C@H](O)[C@H](O)CO)[C@@H]3NC(=O)C(F)(F)F)cc2c1`, the IC50 in test [6] (setting [9]) is 47.9 µM; in test [8], 143 µM; in test [1], 66.7 µM; in test [2], over 200 µM; in test [3] it was 133 µM.

`N#Cc1ccc2cn([C@H]3C=C(C(=O)O)O[C@@H]([C@H](O)[C@H](O)CO)[C@@H]3NC(=O)C(F)(F)F)nc2c1`: the IC50 in test [6] (setting [9]) was 49.8 µM; in test [8] it was 208 µM; in test [1] it was over 200 µM; in test [2], over 200 µM; in test [3], over 200 µM.

With `CC(C)C(=O)N[C@H]1[C@H]([C@H](O)[C@H](O)CO)OC(C(=O)O)=C[C@@H]1n1cc2ccc(C(=O)O)cc2n1`, the IC50 is 211 µM in test [6] (setting [9]); 378 µM in test [8]; over 200 µM in test [1]; over 200 µM in test [2]; over 200 µM in test [3].

As for `CC(=O)N[C@H]1[C@H]([C@H](O)[C@H](O)CO)OC(C(=O)O)=C[C@@H]1n1cc(-c2ccccc2NC(=O)CCNS(=O)(=O)Cc2ccccc2)nn1`, the IC50 in test [6] (setting [9]) is 21.2 µM; in test [8], 53.9 µM; in test [1], over 200 µM; in test [2] it was over 200 µM; in test [3], over 200 µM.

As to `O=C(O)C1=C[C@H](n2cc3ccc(F)cc3n2)[C@@H](NC(=O)C(F)(F)F)[C@H]([C@H](O)[C@H](O)CO)O1`, the IC50 in test [6] (setting [9]) stood at 12.9 µM; in test [8] it was 103 µM; in test [1], 133 µM; in test [2] it was 22.2 µM.

As to `COc1ccc(OC)c2nn([C@H]3C=C(C(=O)O)O[C@@H]([C@H](O)[C@H](O)CO)[C@@H]3NC(=O)C(F)(F)F)cc12`, the IC50 in test [6] (setting [9]) turned out to be 11.2 µM; in test [8] it was 74.2 µM; in test [7], 14.8 µM.

With `O=C(O)C1=C[C@H](n2cc3cc4c(cc3n2)OCO4)[C@@H](NC(=O)C(F)(F)F)[C@H]([C@H](O)[C@H](O)CO)O1`, the IC50 in test [6] (setting [9]) was found to be 12.9 µM; in test [8], 38.9 µM; in test [1], 133 µM; in test [7], 14.8 µM; in test [2], 66.7 µM.

In the case of `CC(C)C(=O)N[C@H]1[C@H]([C@H](O)[C@H](O)CO)OC(C(=O)O)=C[C@@H]1n1cc2cc(C(=O)O)ccc2n1`, the IC50 is 230 µM in test [6] (setting [9]), 163 µM in test [8] and over 200 µM in test [7].

As for `CC(=O)N[C@H]1[C@H]([C@H](O)[C@H](O)CO)OC(C(=O)O)=C[C@@H]1n1cc2ccc3ccccc3c2n1` [IE1530-65], the half-maximal inhibitory concentration (IC50) in test [6] (setting [10]) is 10.2 µM.

Regarding `CC(=O)N[C@H]1[C@H]([C@H](O)[C@H](O)CO)OC(C(=O)O)=C[C@@H]1n1cc2ccccc2n1` [IE1530-66], the concentration for half-maximal inhibition (IC50) in test [6] (setting [10]) was found to be 92.8 µM.

Consider `O=C(O)C1=C[C@H](n2cc3ccc4ccccc4c3n2)[C@@H](NC(=O)C(F)(F)F)[C@H]([C@H](O)[C@H](O)CO)O1` [IE1530-69], for which, in test [6] (setting [10]), the IC50 was found to be 2.84 µM.

Consider `O=C(O)C1=C[C@H](n2cc3ccccc3n2)[C@@H](NC(=O)C(F)(F)F)[C@H]([C@H](O)[C@H](O)CO)O1` [IE1530-74, Sodium 2,6-anhydro-3,4,5-trideoxy-4-(2H-indazol-2-yl)-5-(2,2,2-trifluoroacetamido)-D-glycero-D-galacto-non-2-enonate], for which, in test [6] (setting [10]), the IC50 is 9.37 µM.

With `CC(=O)N[C@H]1[C@H]([C@H](O)[C@H](O)CO)OC(C(=O)O)=C[C@@H]1n1cc(-c2ccccc2NS(C)(=O)=O)nn1` [IE1778-12], in test [6] (setting [10]), the IC50 was found to be 29.1 µM.

For the compound `CC(=O)N[C@H]1[C@H]([C@H](O)[C@H](O)CO)OC(C(=O)O)=C[C@@H]1n1cc(-c2ccccc2NC(=O)CO)nn1` [IE1778-25], in test [6] (setting [10]), the IC50 came out at 27.9 µM.

Turning to `CC(=O)N[C@H]1[C@H]([C@H](O)[C@H](O)CO)OC(C(=O)O)=C[C@@H]1n1nnc2c3ccccc3ccc21` [IE1778-64], the IC50 in test [6] (setting [10]) came to 4.13 µM.

For the compound `O=C(O)C1=C[C@H](n2nnc3c4ccccc4ccc32)[C@@H](NC(=O)C(F)(F)F)[C@H]([C@H](O)[C@H](O)CO)O1` [IE1778-74], the IC50 in test [6] (setting [10]) came out at 0.568 µM; in test [4] (hPIV-3 strain C243, Table 1), 1.87 µM.

On to `CC(=O)N[C@H]1[C@H]([C@H](O)[C@H](O)CO)OC(C(=O)O)=C[C@@H]1n1cc(-c2ccccc2NC(=O)CCCCCCCCCCC(=O)Nc2ccccc2-c2cn([C@H]3C=C(C(=O)O)O[C@@H]([C@H](O)[C@H](O)CO)[C@@H]3NC(C)=O)nn2)nn1` [IE1826-01], for which the IC50 in test [6] (setting [10]) was found to be 8.09 µM; in test [4] (hPIV-3 strain C243, Table 1) it was 17.9 µM.

For the compound `CC(=O)N[C@@H]1[C@@H]([C@@H](O)[C@@H](O)CO)OC(C(=O)O)=C[C@H]1n1cc(-c2ccccc2NC(=O)CCCCCn2cc(CCCc3cn(CCCCCC(=O)Nc4ccccc4-c4cn([C@H]5C=C(C(=O)O)O[C@@H]([C@H](O)[C@H](O)CO)[C@@H]5NC(C)=O)nn4)nn3)nn2)nn1` [IE1826-14], the IC50 in test [6] (setting [10]) was found to be 8.22 µM.

Regarding `CC(=O)N[C@H]1[C@H]([C@H](O)[C@H](O)CO)OC(C(=O)O)=C[C@@H]1n1cc(-c2ccccc2NC(=O)CCCCCN=[N+]=[N-])nn1` [IE1826-23], the IC50 in test [6] (setting [10]) turned out to be 69.2 µM.

In the case of `CC(=O)N[C@@H]1[C@@H]([C@@H](O)[C@@H](O)CO)OC(C(=O)O)=C[C@H]1n1cc(-c2ccccc2NC(=O)CCCCc2cn(CCCCCC(=O)Nc3ccccc3-c3cn([C@H]4C=C(C(=O)O)O[C@@H]([C@H](O)[C@H](O)CO)[C@@H]4NC(C)=O)nn3)nn2)nn1` [IE1826-28], in test [6] (setting [10]), the IC50 is 14 µM.

Consider `CC(=O)N[C@H]1[C@H]([C@H](O)[C@H](O)CO)OC(C(=O)O)=C[C@@H]1n1cc(-c2ccccc2NC(=O)CCCCCn2cc(-c3ccccc3)nn2)nn1` [IE1826-30], for which, in test [6] (setting [10]), the IC50 turned out to be 24.3 µM.

As for `CC(=O)N[C@H]1[C@H]([C@H](O)[C@H](O)CO)OC(C(=O)O)=C[C@@H]1n1cc(-c2ccccc2NC(=O)CCCCCn2cc(C(=O)O)nn2)nn1` [IE1826-34], the IC50 in test [6] (setting [10]) turned out to be 16.7 µM.

On to `COCc1cn(CCCCCC(=O)Nc2ccccc2-c2cn([C@H]3C=C(C(=O)O)O[C@@H]([C@H](O)[C@H](O)CO)[C@@H]3NC(C)=O)nn2)nn1` [IE1826-38], for which the IC50 in test [6] (setting [10]) came to 24.2 µM.

For the compound `CC(=O)N[C@H]1[C@H]([C@H](O)[C@H](O)CO)OC(C(=O)O)=C[C@@H]1n1cc(-c2ccccc2NC(=O)CCCCCn2cc(CO)nn2)nn1` [IE1826-44], the IC50 in test [6] (setting [10]) came to 47.2 µM.

`CC(=O)N[C@H]1[C@H]([C@H](O)[C@H](O)CO)OC(C(=O)O)=C[C@@H]1n1cc(-c2ccccc2NS(C)(=O)=O)nn1` [drawing 111]: the IC50 is over 200 µM in test [1], 60 µM in test [2] and 28 µM in test [3].

Usually IC50 stands for the midpoint of a concentration-inhibition curve.
